Laboratory results published in patent US10272095B2 (GlaxoSmithKline Intellectual Property Development Limited, priority 2015, dated 2019).
pEC50: −log10 of the molar value. Counter-ions that a name gives are not always drawn.

Each compound was assayed on NQO1 specific enzyme activity in BEAS-2B cells (assay: BEAS-2B NQO1 MTT assay). Settings: Homo sapiens, BEAS-2B, 48 h, NQO1 specific enzyme activity induction in BEAS-2B cells, 48 hours; read-out: EC50.
Assay type: cell-based
From the text: NAD(P)H:quinone oxidoreductase 1 (NQO1), also called DT diaphorase, is a homodimeric FAD-containing enzyme that catalyzes obligatory NAD(P)H-dependent two-electron reductions of quinones and protects cells against the toxic and neoplastic effects of free radicals and reactive oxygen species arising from one-electron reductions. The transcription of NQO1 is finely regulated by NRF2, and thus NQO1 activity is a good marker for NRF2 activation. On day one, frozen BEAS-2B cells (ATCC) are thawed in a water bath, counted, and re-suspended at a concentration of 250,000 cells/mL. Fifty microliters of cells are plated in 384 well black clear-bottomed plates. Plates are incubated at 37° C., 5% CO2 overnight. On day two, plates are centrifuged and 50 nL of compound or controls are added to the cells. Plates are then incubated at 37° C., 5% CO2 for 48 hours. On day four, medium is aspirated from the plate and crude cell lysates are made by adding 13 uL of 1× Cell Signaling Technologies lysis buffer with 1 Complete, Mini, EDTA-free Protease Inhibitor Tablet (Roche) for each 10 mL of lysis buffer. After lysis plates are incubated for 20 minutes at room temperature. Two microliters of lysate are removed for use in Cell Titer Glo assay (Promega) and MTT cocktail is prepared (Prochaska et. al. 1998) for measurement of NQO1 activity. Fifty microliters of MTT cocktail is added to each well, plate is centrifuged, and analyzed on an Envision plate reader (Perkin Elmer) using Absorbance 570 nm label for 30 minutes. Product formation is measured kinetically and the pEC50 of NQO1 specific activity induction is calculated by plotting the change in absorbance (Delta OD/min) versus the log of compound concentration followed by 3-parameter fitting.
EC50s<1 nM (+++++), EC50s 10 nM-1 nM (++++), EC50s 10-100 nM (+++), EC50s 100 nM-1 uM (++), EC50s 1 uM-10 uM (+), EC50s>10 uM (−), or were not determined (ND).

Cc1c([C@H](c2ccc3c(c2)[C@@H](N2Cc4ccncc4OC(C)(C)C2)CC3)C(C)(C)C(=O)O)ccc2c1nnn2C (racemic) [Example 69, rac-(R)-3-(1,4--1H-benzo[d][1,2,3]triazol-5-yl)-3-(rac-(R)-3-(2,2-dimethyl-2,3-dihydropyrido[4,3-f][1,4]oxazepin-4(5H)-yl)-2,3-dihydro-1H-inden-5-yl)-2,2-dimethylpropanoic acid, Trifluoroacetic acid salt] and Cc1c([C@H](c2ccc3c(c2)[C@H](N2Cc4ncccc4OC(C)(C)C2)CC3)C(C)(C)C(=O)O)ccc2c1nnn2C (racemic) [Example 67, rac-(R)-3-(1,4-Dimethyl-1H-benzo[d][1,2,3]triazol-5-yl)-3-(rac-(S)-3-(2,2-dimethyl-2,3-dihydropyrido[2,34][1,4]oxazepin-4(5H)-yl)-2,3-dihydro-1H-inden-5-yl)-2,2-dimethylpropanoic Acid, Trifluoroacetic Acid Salt] cannot be ordered by pEC50: over 9.00 for the first, over 9.00 for the second.

First: CCn1cc(CCC(CC(=O)O)c2ccc3c(c2)C2C(CCN2C(=O)OC(C)(C)C)C3)nn1 (stereo not drawn) [Example 17, 3-(1-(tert-Butoxycarbonyl)-1,2,3,3a,4,8b-hexahydroindeno[1,2-b]pyrrol-7-yl)-5-(1-ethyl-1H-1,2,3-triazol-4-yl)pentanoic Acid]
Second: COc1cc(C(CC(=O)O)c2ccc3c(c2)C2C(CCN2C(=O)OC(C)(C)C)C3)c(C)c2nnn(C)c12 (stereo not drawn) [Example 18, 3-(1-(tert-Butoxycarbonyl)-1,2,3,3a,4,8b-hexahydroindeno[1,2-b]pyrrol-7-yl)-3-(7-methoxy-1,4-dimethyl-1H-benzo[d][1,2,3]triazol-5-yl)propanoic Acid]
The pEC50 of the first is lower: 5.00 to 6.00 for the first, 7.00 to 8.00 for the second. The second is the more potent here.

Cc1c(C(CC(=O)O)c2ccc3c(c2)C(N2Cc4ccccc4O[C@H](C)C2)CC3)ccc2c1nnn2C (stereo partly drawn) [Example 53, 3-(1,4-Dimethyl-1H-benzo[d][1,2,3]triazol-5-yl)-3-(3-((R)-2-methyl-2,3-dihydrobenzo[f][1,4]oxazepin-4(5H)-yl)-2,3-dihydro-1H-inden-5-yl)propanoic Acid] and Cc1c(C(CC(=O)O)c2ccc3c(c2)C(N2Cc4ccccc4O[C@@H](C)C2)CC3)ccc2c1nnn2C (stereo partly drawn) [Example 56, 3-(1,4-Dimethyl-1H-benzo[d][1,2,3]triazol-5-yl)-3-(3-((S)-2-methyl-2,3-dihydrobenzo[f][1,4]oxazepin-4(5H)-yl)-2,3-dihydro-1H-inden-5-yl)propanoic Acid, Formic Acid Salt] fall in the same range of pEC50: 6.00 to 7.00 for the first, 6.00 to 7.00 for the second.

First: CCCc1cn(CCC(CC(=O)O)c2ccc3c(c2)C(N2Cc4ccccc4OC(C)(C)C2)CC3)nn1 (stereo not drawn) [Example 63, 3-(3-(2,2-Dimethyl-2,3-dihydrobenzo[f][1,4]oxazepin-4(5H)-yl)-2,3-dihydro-1H-inden-5-yl)-5-(4-propyl-1H-1,2,3-triazol-1-yl)pentanoic Acid, Trifluoroacetic Acid Salt]
Second: CCCc1cn(CCC(c2ccc3c(c2)C(N2Cc4ccccc4OC(C)(C)C2)CC3)C(C)(C)C(=O)O)nn1 (stereo not drawn) [Example 65, 3-(3-(2,2-Dimethyl-2,3-dihydrobenzo[f][1,4]oxazepin-4(5H)-yl)-2,3-dihydro-1H-inden-5-yl)-2,2-dimethyl-5-(4-propyl-1H-1,2,3-triazol-1-yl)pentanoic Acid, Trifluoroacetic Acid Salt]
The pEC50 of the first is lower: 5.00 to 6.00 for the first, 7.00 to 8.00 for the second.

Cc1c(C(CC(=O)O)c2ccc3c(c2)C2C(CCN2C(=O)Cc2ccccc2Cl)C3)ccc2c1nnn2C (stereo not drawn) [Example 11, 3-{1-[2-(2-Chlorophenyl)acetyl]-1H,2H,3H,3aH,4H,8bH-indeno[1,2-b]pyrrol-7-yl}-3-(1,4-dimethyl-1H-1,2,3-benzotriazol-5-yl)propanoic Acid] and Cc1c(C(CC(=O)O)c2ccc3c(c2)C2C(CCN2C(=O)C(C)c2ccccc2)C3)ccc2c1nnn2C (stereo not drawn) [Example 9, 3-(1,4-Dimethyl-1H-1,2,3-benzotriazol-5-yl)-3-[1-(2-phenylpropanoyl)-1H,2H,3H,3aH,4H,8bH-indeno[1,2-b]pyrrol-7-yl]propanoic Acid] fall in the same range of pEC50: 5.00 to 6.00 for the first, 5.00 to 6.00 for the second.

First: CC[C@@H]1CN(C2CCc3ccc(C(CC(=O)O)c4ccc5c(nnn5C)c4C)cc32)Cc2cnccc2O1 (stereo partly drawn) [Example 57, 3-(1,4-Dimethyl-1H-benzo[d][1,2,3]triazol-5-yl)-3-(3-((R)-2-ethyl-2,3-dihydropyrido[3,4-f][1,4]oxazepin-4(5H)-yl)-2,3-dihydro-1H-inden-5-yl)propanoic Acid, Formic Acid Salt]
Second: CC[C@@H]1CN([C@@H]2CCc3ccc(C(CC(=O)O)c4ccc5c(nnn5C)c4C)cc32)Cc2ccccc2O1 (relative stereo) [Example 84, rel-(R)-3-(1,4-Dimethyl-1H-benzo[d][1,2,3]triazol-5-yl)-3-(rel-(R)-3-((R)-2-ethyl-2,3-dihydrobenzo[f][1,4]oxazepin-4(5H)-yl)-2,3-dihydro-1H-inden-5-yl)propanoic acid]
The pEC50 of the first is higher: 6.00 to 7.00 for the first, 5.00 to 6.00 for the second.

First: Cc1cc(C#N)ccc1C(CC(=O)O)c1ccc2c(c1)C(N1Cc3cccnc3OC(C)(C)C1)CC2 (stereo not drawn) [Example 59, 3-(4-Cyano-2-methylphenyl)-3-(3-(2,2-dimethyl-2,3-dihydropyrido[3,2-f][1,4]oxazepin-4(5H)-yl)-2,3-dihydro-1H-inden-5-yl)propanoic Acid, Formic Acid Salt]
Second: COc1cc(C(CC(=O)O)c2ccc3c(c2)C(N2Cc4cccnc4OC(C)(C)C2)CC3)c(C)c2nnn(C)c12 (stereo not drawn) [Example 44, 3-(3-(2,2-Dimethyl-2,3-dihydropyrido[3,2-f][1,4]oxazepin-4(5H)-yl)-2,3-dihydro-1H-inden-5-yl)-3-(7-methoxy-1,4-dimethyl-1H-benzo[d][1,2,3]triazol-5-yl)propanoic Acid, Formic Acid Salt]
The pEC50 of the first is lower: 6.00 to 7.00 for the first, 8.00 to 9.00 for the second. The second is the more potent here.

Compared with CC[C@@H]1CN(C2CCc3ccc(C(CC(=O)O)c4cc(OC)c5c(nnn5C)c4C)cc32)Cc2ccccc2O1 (stereo partly drawn) [Example 45, 3-(3-((R)-2-Ethyl-2,3-dihydrobenzo[f][1,4]oxazepin-4(5H)-yl)-2,3-dihydro-1H-inden-5-yl)-3-(7-methoxy-1,4-dimethyl-1H-benzo[d][1,2,3]triazol-5-yl)propanoic Acid, Formic Acid Salt], CC[C@@H]1CN([C@H]2CCc3ccc([C@H](c4ccc5c(nnn5C)c4C)C(C)(C)C(=O)O)cc32)Cc2cnccc2O1 (relative stereo) [Example 76, rel-(R)-3-(1,4-Dimethyl-1H-benzo[d][1,2,3]triazol-5-yl)-3-(rel-(S)-3-((R)-2-ethyl-2,3-dihydropyrido[3,4-f][1,4]oxazepin-4(5H)-yl)-2,3-dihydro-1H-inden-5-yl)-2,2-dimethylpropanoic acid] is lower in pEC50: 7.00 to 8.00 for the first, 5.00 to 6.00 for the second. The first is the more potent here.

First: CCCCN(C)C(=O)N1CCC2Cc3ccc(C(CC(=O)O)c4ccc5c(nnn5C)c4C)cc3C21 (stereo not drawn) [Example 14, 3-{1-[Butyl(methyl)carbamoyl]-1H,2H,3H,3aH,4H,8bH-indeno[1,2-b]pyrrol-7-yl}-3-(1,4-dimethyl-1H-1,2,3-benzotriazol-5-yl)propanoic Acid]
Second: Cc1cc(F)ccc1C(c1ccc2c(c1)C(N1Cc3ccccc3OC(C)(C)C1)CC2)C(C)(C)C(=O)O (stereo not drawn) [Example 26, 3-(3-(2,2-Dimethyl-2,3-dihydrobenzo[f][1,4]oxazepin-4(5H)-yl)-2,3-dihydro-1H-inden-5-yl)-3-(4-fluoro-2-methylphenyl)-2,2-dimethylpropanoic Acid]
The pEC50 of the first is lower: 5.00 to 6.00 for the first, 7.00 to 8.00 for the second.
